Here are results for one molecule from ChEMBL document CHEMBL5725965, “Isoxazole derivatives as FXR agonists and methods of use thereof” (2018).

For the experiment, the target named is T1, Bile acid receptor (Homo sapiens, UniProt Q96RI1).
T1 sequence (Q96RI1 whole entry): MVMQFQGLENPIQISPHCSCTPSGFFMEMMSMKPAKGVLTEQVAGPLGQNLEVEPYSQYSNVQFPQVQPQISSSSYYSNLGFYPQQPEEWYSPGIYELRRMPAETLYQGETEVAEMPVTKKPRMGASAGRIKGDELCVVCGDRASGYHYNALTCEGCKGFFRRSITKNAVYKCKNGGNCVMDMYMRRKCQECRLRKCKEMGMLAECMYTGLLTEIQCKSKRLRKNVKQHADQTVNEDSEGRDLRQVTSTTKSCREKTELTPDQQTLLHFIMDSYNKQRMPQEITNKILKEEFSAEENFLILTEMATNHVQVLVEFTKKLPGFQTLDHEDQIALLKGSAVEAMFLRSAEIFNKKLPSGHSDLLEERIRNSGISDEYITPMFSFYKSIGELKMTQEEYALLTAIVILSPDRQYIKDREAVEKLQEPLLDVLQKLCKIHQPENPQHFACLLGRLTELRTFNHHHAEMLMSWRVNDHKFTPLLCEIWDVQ
The experiment in a line: FXR Reporter Assay kit purchased from Indigo Bioscience (Catalogue number: IB00601) to determine the potency and efficacy of compound developed by Enanta that can induce FXR activation. The principle application of this reporter assay system is to quantify functional activity of human FXR. The assay utilizes non-human mammalian cells, CHO (Chinese hamster ovary) cells engineered to express human NR1H4 protein (referred to as FXR). Reporter cells also incorporate the cDNA encoding beetle luciferase which catalyzes the substrates and yields photon emission. Luminescence intensity of the reaction is quantified using a plate-reading luminometer, Envision. Reporter Cells include the luciferase reporter gene functionally linked to an FXR responsive promoter. Thus, quantifying changes in luciferase expression in the treated reporter cells provides a sensitive surrogate measure of the changes in FXR activity. […] The assay is according to the manufacturer's instructions. In brief, the assay was performed in white, 96 well plates using final volume of 100 μl containing cells with different doses of compounds. Retrieve Reporter Cells from −80° C. storage. Perform a rapid thaw of the frozen cells by transferring a 10 ml volume of 37° C. cell recovery medium into the tube of frozen cells. Recap the tube of Reporter Cells and immediately place it in a 37° C. water bath for 5-10 minutes. […]. The class given is cell-based. For orientation: In a reporter assay the amount or activity of a reporter protein is the signal.

A value given as a limit tells only on which side of the number the result lay.

As to `CN(C)S(=O)(=O)NC(=O)c1ccc2nc(N3C4CC[C@H]3C[C@H](OCc3c(-c5c(Cl)cccc5Cl)noc3C3CC3)C4)sc2c1`, the EC50 – broadly, the concentration giving half of the maximal effect – was under 100 nM.
